Assay results: patent US4010282A, “Anti-arrhythmic agents” (Knoll A.G. Chemische Fabriken, priority 1974, dated 1977)
Like-named read-outs stand apart in the source and are kept apart here.

How the values were obtained:
[1] = test system: left auricle of the guinea pig; assay: functional refractory period of the left auricle of the guinea pig using paired electrical stimulation (anti-arrhythmic effect); conditions: for activation at 100 µM: 10^-^4 Mol/l; for Anti-arrhythmic Effect (Prolongation of the Refractory Period) ED25: dose which lengthens the refractory period by 25 percent, up to 30 minutes after addition to bath liquid; for activation at 10 µM: 10^-^5 Mol/l
Description: (§1) Jovier, J. Pharmakol. Exp. Therap. 148, 100-105 (1965). In this experimental arrangement, the numerous anti-arrhythmic agents, of different chemical structure and different therapeutic points of attack in man, heretofore used in therapy are all characterized by a lengthening of the functional refractory period. The method additionally permits determining the effects of the substance on the contractile force of the heart muscle [Reuter and Heeg, Naunyn-Schmiedeberg's Arch. Pharmak. 268, 323-333 (1971) and Zetler and Strubelt, Naunyn-Schmiedeberg's Arch. Pharmak. 271, 335-345 (1971)]. It is, thus, highly suitable for detecting substances having a large therapeutic breadth, i.e., with a large margin of safety between anti-arrhythmically- and negative inotropically-effective doses.
The testing of the substances employed up to 30 individual experiments in each case. For the determination of the effective dose, linear regression functions were calculated [cf. A. Lindner, Statistische Methoden, 3rd Edition, Birkhaeuser Verlag, Basel (1969)], in which the maximum percentage deviations from the starting value in a time period up to 30 minutes after addition of the test substance to the bath liquid was employed.
(§2) In column I of following Table 1, one of the new compounds and known anti-arrhythmic agents are entered. Column II gives the anti-arrhythmic effect. Column III reports the inotropic effect. The therapeutic breadth of the compounds is given in column IV. The ED25 is the effective dose which lengthens the refractory period by 25 percent or lowers the contractile force by 25 percent.

[2] = test system: left auricle of the guinea pig; assay: inotropic effect: decrease in contractile force of the heart muscle; conditions: for Therapeutic Breadth (III/II): ratio ED25 inotropic / ED25 anti-arrhythmic
Description: as §1, with “148, 100-105 (1965).” left out, “268, 323-333 (1971) and Zetler and Strubelt, Naunyn-Schmiedeberg's Arch.” left out, “271, 335-345 (1971)].” left out
The testing of the substances employed up to 30 individual experiments in each case. For the determination of the effective dose, linear regression functions were calculated [cf.
as §2

[3] = test system: rats; assay: aconitine-induced disturbance of the heart rhythm in rats (electrocardiogram); assay type: in vivo; conditions: for ED25 / ED50: Rattus norvegicus
Description: The anti-arrhythmic effect of the diamines could also be confirmed in intact research animals with an experimentally-induced disturbance of the heart rhythm. If rats are continuously infused intravenously with aconitine, severe disturbances in the heartbeat sequence, such as extrasystoles, ventricular tachycardia, and ventricular flutter, which eventually lead to the death of the experimental animal, can be detected in an electrocardiogram. By a pre-treatment with the new pharmaceutical agents, the appearance of these threatening disturbances of the heart rhythm can be hindered or, on continuous administration of aconitine, can be considerably delayed. This experimental model of arrhythmia has already been checked for its evidentiary value using clinically tested standard therapeutic agents and is highly suitable for an experimental animal characterization of anti-arrhythmic agents [cf. Bianchi et al., Arzneim. Forsch. 18, 845-850 (1968); Haas and Busch, Arzneim. Forsch. 18, 401-407 (1968); Haas et al., Arzneim. Forsch. 21, 1392-1399 (1971); Marmo, Naunyn-Schmiedeberg's Arch. Pharmak. 269, 231-247 (1971); and Strubelt et al., Naunyn-Schmiedeberg's Arch. Pharmak. 271, 346-360 (1971)].
The ED25 and ED50 are the intravenous or oral doses in mg/kg that permit a 25 percent or 50 percent increase in the dosage of aconitine administered, versus the aconitine control, until the occurrence of extrasystoles, ventricular tachycardia, and ventricular flutter.

[4] = Cavia porcellus, read-out: Anti-arrhythmic Effect (% Prolongation of the Refractory Period)
[5] = iv, read-out: Ventr. Tachycardia ED25
[6] = iv, read-out: Ventr. Tachycardia ED50
[7] = dose which lowers the contractile force by 25 percent, up to 30 minutes after addition to bath liquid

SMILES: c1ccc(CNCCCNCc2ccccc2)cc1
- activation at 100 µM [1, 4]: 47%
- Anti-arrhythmic Effect (Prolongation of the Refractory Period) ED25 [1]: 0.054
- Inotropic Effect (Decrease in Contractile Force) ED25 ([2]; guinea pig): 0.141
- Therapeutic Breadth (III/II) [2]: 2.6
- ED25 ([3]; iv, read-out: Extrasystoles ED25): 5.2 mg/kg
- ED50 ([3]; iv, read-out: Extrasystoles ED50): 6 mg/kg
- ED25 ([3]; iv, read-out: Ventr. Flutter ED25): 4.9 mg/kg
- ED50 ([3]; iv, read-out: Ventr. Flutter ED50): 6.4 mg/kg
- ED25 [3, 5]: 5.3 mg/kg
- ED50 [3, 6]: 6.2 mg/kg
- ED25 ([3]; po, read-out: Extrasystoles ED25): 65.8 mg/kg
- ED50 ([3]; po, read-out: Extrasystoles ED50): 96.2 mg/kg
- ED25 ([3]; po, read-out: Ventr. Flutter ED25): 51.1 mg/kg
- ED50 ([3]; po, read-out: Ventr. Flutter ED50): 69.9 mg/kg
- ED25 ([3]; po, read-out: Ventr. Tachycardia ED25): 55.4 mg/kg
- ED50 ([3]; po, read-out: Ventr. Tachycardia ED50): 71.6 mg/kg
- effect in aconitine arrhythmia ([3]; Table 3, parenterally as well as orally): superior effect

SMILES: c1ccc(CN(CC2=NCCN2)c2ccccc2)cc1 [Antazoline, antazoline]
- Anti-arrhythmic Effect (Prolongation of the Refractory Period) ED25 [1]: 0.164
- Inotropic Effect (Decrease in Contractile Force) ED25 [2, 7]: 0.094
- Therapeutic Breadth (III/II) [2]: 0.6

SMILES: Clc1cccc(CNCCCNCc2cccc(Cl)c2)c1 [N,N'-di-(3'-chlorobenzyl)-propylene-1,3-diamine]
- activation at 20 µM ([1]; Cavia porcellus, 2 × 10^-^5 Mol/l, read-out: Anti-arrhythmic Effect (% Prolongation of the Refractory Period)): 45%

SMILES: Clc1ccc(CNCCCNCc2ccc(Cl)cc2)cc1 [N,N'-di-(4'-chlorobenzyl)-1,3-diaminopropane]
- activation at 10 µM [1, 4]: 37%

SMILES: Clc1ccc(CNCCCNCc2ccc(Cl)c(Cl)c2)cc1Cl [N,N'-di-(m,p-dichlorobenzyl)-propylenediamine]
- activation at 10 µM [1, 4]: 26%

SMILES: COc1ccc(CNCCCNCc2ccc(OC)c(OC)c2)cc1OC [N,N'-di-(m,p-dimethoxybenzyl)propylenediamine]
- activation at 100 µM [1, 4]: 42%

SMILES: c1ccc(CNCCNCc2ccccc2)cc1 [N,N'-dibenzyl-ethylenediamine]
- activation at 100 µM [1, 4]: 39%

SMILES: CCC[N+]12C(O)C(CC)C3CC1C1N(C)c4ccccc4C14CC2C3C4O (stereo not drawn) [N,n-propylajmaline, N-propylajmaline]
- Anti-arrhythmic Effect (Prolongation of the Refractory Period) ED25 [1]: 0.0037
- Inotropic Effect (Decrease in Contractile Force) ED25 [2, 7]: 0.0015
- Therapeutic Breadth (III/II) [2]: 0.4

SMILES: C1CCN2C[C@@H]3C[C@@H](CN4CCCC[C@@H]34)[C@H]2C1 [SPARTEINE, reference compound]
- ED25 [3, 5]: 4.4 mg/kg
- ED50 [3, 6]: 9.6 mg/kg
